This assay addresses Aldo-keto reductase family 1 member B1 (Homo sapiens, UniProt P15121). Kind of assay: Inhibition of recombinant human aldose reductase using dl-glyceraldehyde as substrate after 10 mins by spectrophotometry.

The structures appear in SMILES notation.

The term IC50 denotes the concentration at which inhibition is half-maximal.

As to `CC(CC(=O)C[C@@H](C)[C@H]1CC(=O)[C@@]2(C)C3C(=O)C[C@H]4C(C)(C)[C@@H](O)CC[C@]4(C)C3C(=O)C(=O)[C@]12C)C(=O)O` (stereo partly drawn), the IC50 was greater than 193 µM. In the case of `CC(CC(=O)C[C@@H](C)[C@H]1CC(=O)[C@@]2(C)C3C(C(=O)C(=O)[C@]12C)[C@@]1(C)CC[C@H](O)C(C)(C)[C@@H]1C[C@@H]3O)C(=O)O` (stereo partly drawn) it was greater than 188 µM; in that of `CC(=CC(=O)CC(C)C(=O)O)[C@H]1CC(=O)[C@@]2(C)C3=C(C(=O)C[C@]12C)[C@@]1(C)CCC(=O)C(C)(C)[C@@H]1C[C@@H]3O` (stereo partly drawn), greater than 195 µM.

Values taken from BindingDB's records for doi:10.1016/j.bmcl.2011.10.035 (Sepuluh Nopember Institute of Technology, 2011).
